Source: US20110082157A1, “Piperidinylamino-Thieno [2,3-D] Pyrimidine Compounds” (priority 2004, published 2011)
pIC50, pKi: −log10 of the molar value. Where a name gives a salt, the structure may show the parent alone. Read-outs that look alike come from different tables or passages of the source.

Experiments:
5HT2B [1] = molecular target: T1, 5HT2B (Homo sapiens, UniProt P41595); assay: Functional activity IC50 (5HT2B antagonist); type: cell-based
Rat pK = settings: in vivo; for bioavailability: read-out: Rat pK: % F
HLM T1/2 = settings: human, liver microsomes
D2S = D2S (Homo sapiens, UniProt P14416); assay: D2S binding (Ki)
D2S, sequence (P14416 1-414 isoform P14416-2): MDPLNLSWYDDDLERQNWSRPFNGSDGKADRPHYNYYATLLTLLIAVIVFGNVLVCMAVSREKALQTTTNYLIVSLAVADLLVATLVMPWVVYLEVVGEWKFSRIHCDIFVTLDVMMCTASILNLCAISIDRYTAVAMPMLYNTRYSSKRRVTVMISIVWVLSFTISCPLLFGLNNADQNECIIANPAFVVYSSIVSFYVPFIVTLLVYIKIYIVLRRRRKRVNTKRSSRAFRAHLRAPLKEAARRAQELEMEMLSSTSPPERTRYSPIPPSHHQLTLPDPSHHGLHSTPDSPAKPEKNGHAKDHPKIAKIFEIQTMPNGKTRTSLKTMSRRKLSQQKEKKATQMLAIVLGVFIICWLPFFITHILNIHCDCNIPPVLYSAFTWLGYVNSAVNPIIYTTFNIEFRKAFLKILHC

IP3 = assay: IC50 (IP3); type: cell-based
hERG = hERG (Homo sapiens, UniProt Q12809); assay: hERG % inhibition at 1 uM
hERG, sequence (Q12809 whole entry): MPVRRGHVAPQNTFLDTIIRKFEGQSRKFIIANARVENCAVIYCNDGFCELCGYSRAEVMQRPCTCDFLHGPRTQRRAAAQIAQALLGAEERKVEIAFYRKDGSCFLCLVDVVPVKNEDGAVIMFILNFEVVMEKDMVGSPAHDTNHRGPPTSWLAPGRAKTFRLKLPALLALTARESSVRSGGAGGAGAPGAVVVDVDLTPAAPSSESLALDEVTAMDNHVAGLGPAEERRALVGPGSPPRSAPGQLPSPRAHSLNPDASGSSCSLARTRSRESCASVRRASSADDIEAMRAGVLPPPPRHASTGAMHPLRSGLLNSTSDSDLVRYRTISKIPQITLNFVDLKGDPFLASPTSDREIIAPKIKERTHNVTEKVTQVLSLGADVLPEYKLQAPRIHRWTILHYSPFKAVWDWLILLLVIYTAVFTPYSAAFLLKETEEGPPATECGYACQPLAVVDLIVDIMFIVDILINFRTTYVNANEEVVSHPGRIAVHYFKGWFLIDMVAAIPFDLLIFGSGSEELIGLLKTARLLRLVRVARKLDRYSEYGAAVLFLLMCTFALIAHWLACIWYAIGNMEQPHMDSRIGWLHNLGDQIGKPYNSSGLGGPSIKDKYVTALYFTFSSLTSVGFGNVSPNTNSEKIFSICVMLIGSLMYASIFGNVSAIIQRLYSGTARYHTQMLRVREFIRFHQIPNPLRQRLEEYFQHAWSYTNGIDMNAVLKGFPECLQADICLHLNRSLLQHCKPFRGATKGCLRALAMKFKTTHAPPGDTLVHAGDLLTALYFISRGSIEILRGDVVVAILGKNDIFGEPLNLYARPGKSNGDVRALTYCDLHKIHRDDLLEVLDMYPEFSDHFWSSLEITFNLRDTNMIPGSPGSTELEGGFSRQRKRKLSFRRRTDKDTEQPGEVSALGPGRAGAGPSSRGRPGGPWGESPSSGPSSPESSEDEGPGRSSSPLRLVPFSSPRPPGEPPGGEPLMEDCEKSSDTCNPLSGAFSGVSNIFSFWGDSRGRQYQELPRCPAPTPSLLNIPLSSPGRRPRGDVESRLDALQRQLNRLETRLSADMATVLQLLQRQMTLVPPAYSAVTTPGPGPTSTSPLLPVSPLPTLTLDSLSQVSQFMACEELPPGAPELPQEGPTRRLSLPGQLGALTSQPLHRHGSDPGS

5HT2B [2] = molecular target: T1, 5HT2B; assay: 5HT2B binding (Ki of Biological Data Table)
[3] = po, read-out: Rat pK: T1/2 (po)

T1 sequence (P41595 whole entry, species assumed): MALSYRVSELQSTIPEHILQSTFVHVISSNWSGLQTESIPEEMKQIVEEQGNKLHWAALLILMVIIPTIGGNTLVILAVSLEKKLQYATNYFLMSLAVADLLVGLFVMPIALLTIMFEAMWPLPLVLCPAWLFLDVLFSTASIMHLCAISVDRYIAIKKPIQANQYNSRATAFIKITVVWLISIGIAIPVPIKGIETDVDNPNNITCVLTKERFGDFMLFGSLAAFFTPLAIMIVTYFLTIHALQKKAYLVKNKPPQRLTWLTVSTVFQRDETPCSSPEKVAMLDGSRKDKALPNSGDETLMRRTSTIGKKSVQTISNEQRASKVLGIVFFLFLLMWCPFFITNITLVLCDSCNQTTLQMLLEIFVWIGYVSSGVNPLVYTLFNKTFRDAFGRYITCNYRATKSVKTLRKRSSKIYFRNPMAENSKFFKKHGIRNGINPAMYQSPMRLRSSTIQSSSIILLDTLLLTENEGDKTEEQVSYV

| Structure (SMILES) | pIC50 (5HT2B [1]) | half-life (Rat pK; [3]) [min] | half-life (HLM T1/2) [min] | pKi (D2S; NA: Not Active) | hERG (% Inhibition at 1 uM) (hERG) | bioavailability (Rat pK; po) [%] | other results |
| --- | --- | --- | --- | --- | --- | --- | --- |
| c1ccc(CN2CCC(Nc3ncnc4sc5c(c34)CCCC5)CC2)cc1 [Example B1, N-(1-benzylpiperidin-4-yl)5,6,7,8-tetrahydro-benzo[4,5]thieno[2,3-d]pyrimidin-4-amine] | 6.96 | 60 | < 15 |  |  |  |  |
| Fc1cccc(CN2CCC(Nc3ncnc4sc5c(c34)CCCC5)CC2)c1 [Example B3, N-(1-(3-fluorobenzyl)piperidin-4-yl)5,6,7,8-tetrahydro-bcnzo[4,5]thieno[2,3-d]pyrimidin-4-amine] | 7.00 |  | 4.3 | 6.62 | 58.5% |  | pIC50 (IP3): 7.65 |
| N#Cc1cccc(CN2CCC(Nc3ncnc4sc5c(c34)CCCC5)CC2)c1 [Example B11, 3-((4-(5,6,7,8-tetrahydro-benzo[4,5]thieno[2,3-d]pyrimidin-4-ylamino)piperidin-1-yl)methyl)benzonitrile, dihydrochloride] |  |  | < 15 |  | hERG (% Inhibition at 1 uM): 44.9 |  | % at 1 nM (5HT2B) (5HT2B [2]; 1 nM): 35%; % at 10 nM (5HT2B) (5HT2B [2]; 10 nM): 82%; % at 100 nM (5HT2B) (5HT2B [2]; 100 nM): 101% |
| CC(c1cccc(F)c1)N1CCC(Nc2ncnc3sccc23)CC1 (centres unmarked) [Example B12, N-(1-(1-(3-fluorophenyl)ethyl)piperidin-4-yl) thieno[2,3-d]pyrimidin-4-amine, dihydrochloride] |  |  | 11 | 6.60 | hERG (% Inhibition at 1 uM): 58.5 |  |  |
| CC(C)Cc1cc2c(NC3CCN(C(C)c4cccc(F)c4)CC3)ncnc2s1 (centres unmarked) [Example B14, N-(1-(1-(3-fluorophenyl)ethyl)piperidin-4-yl)-6-isobutylthieno[2,3-d] pyrimidin-4-amine, dihydrochloride] | 5.28 | 30 | < 15 |  | 76.1% | 4 | half-life (Rat pK; iv, read-out: Rat pK: T1/2 (iv)): 30 min |
| CC(c1cc(F)cc(F)c1)N1CCC(Nc2ncnc3sc4c(c23)CCCC4)CC1 (centres unmarked) [Example B17, N-(1-(1-(3,5-difluorophenyl)ethyl)piperidin-4-yl)5,6,7,8-tetrahydro-benzo [4,5]thieno[2,3-d] pyrimidin-4-amine, dihydrochloride] | 5.89 |  | < 15 |  |  |  |  |
| Fc1cc(F)cc(CN2CCC(Nc3ncnc4sccc34)CC2)c1 [Example B30, N-(1-(3,5-difluorobenzyl)piperidin-4-yl) thieno[2,3-d]pyrimidin-4-amine, dihydrochloride] | 5.80 | 48 | 19 |  | 62% | 17 |  |
| CC(C)c1cc2c(NC3CCN(Cc4cc(F)cc(F)c4)CC3)ncnc2s1 [Example B31, N-(1-(3,5-difluorobenzyl)piperidin-4-yl)-6-isopropylthieno [2,3-d] pyrimidin-4-amine, dihydrochloride] | 6.08 | 30 | 8 | 6.64 |  | 10 |  |
| CC(C)c1cc2c(NC3CCN(Cc4cc(F)cc(F)c4)CC3)ncnc2s1 [Example B32, N-(1-(3,5-difluorobenzyl)piperidin-4-yl)-6-isopropylthieno [2,3-d] pyrimidin-4-amine, monomaleate] | 6.35 |  |  |  |  |  | pIC50 (IP3): 8.82 |
| Clc1cc2c(NC3CCN(Cc4cccnc4)CC3)ncnc2s1 [Example B47, 6-chloro-N-(1-((pyridin-3-yl)methyl)piperidin-4-yl)thieno [2,3-d]pyrimidin-4-amine, monomaleate] |  |  | 12 |  |  |  | pKi (D2S): < 5.00 |
